“Also recorded” adds a separate entry of the source.
Assays:
Rhino mouse [1] = assay: Comedolytic effect of topical application to the Rhino mouse (comedone area); type: in vivo; conditions: for response vs control in vivo at 0.217 µmol/kg: dose 217 nmol/kg; for comedone area relative to vehicle-treated group (FIG. 8, 9, 10): 217 nmole/kgBW/day; for response vs control in vivo at 0.069 µmol/kg: dose 69 nmol/kg; for comedone area (FIG. 7, FIG. 10): 69 nmole/kgBW/day; for comedone area relative to vehicle-treated group (FIG. 11): 72 h after final dose
Source text: (§1) Rhino mice were used to topically and orally test the compounds and compositions of the invention. The Rhino mouse is a well-established animal model used to study the comedolytic effects of anti-acne agents including retinoids. (See Boulcier M et al., Experimental Models in Skin Pharmacology, 1990, In Pharmacological Reviews 42:127-15). Mirshahpanah and Maibach, 2007, Cutaneous and Ocular Toxicology 26:195-202). The Rhino mouse model was used to study the therapeutic potential of 2-Methylene-19-nor-20(S)-1α-hydroxy-bishomopregnacalciferol (2MBisP), 19-Nor-26,27-dimethylene-20(S)-2-methylene-1α,25-dihydroxyvitamin D3 (CAGE-3), NEL, 24R-2MD2, Vit-III (17-20E), 2MPregna, 2MP, 20R-2MbisP, 2MTrisP, FF-44, FF-55, HPBS, VD-03 and atRA.
(§2) Animals and dose administration. Rhino mice 6-10 weeks old were dosed via the oral and/or topical route. In the majority of studies, the mice were dosed daily. In one topical study, the efficacy of daily versus intermittent (Monday/Wednesday/Friday) dosing was compared. The mice were weighed three times per week and doses were adjusted weekly based on body weight. The topical formulations were applied to the back of the animal in a maximum volume of 110 μL. The topical formulations were made by mixing the APIs with a topical carrier comprising 70 vol % propylene glycol and 30 vol % ethanol or 30 vol % propylene glycol and 70 vol % ethanol, as indicated. The topical vehicle control was the vehicle carrier solution matched to the formulation containing API and vehicle carrier.
(§3) The oral formulation was made by mixing the APIs with Wesson® soybean oil or NeoBee® oil. The oral dose was delivered to the back of the mouth of each mouse. Mice were sacrificed 4 hours after the final oral dose and 72 hours after the final topical dose. At sacrifice, the dorsal skin was collected for histological studies.
(§4) Comedolytic effect. The extent of the comedolytic effect (i.e., efficacy) was assessed by measuring the average area of the comedones, whereby the smaller the area, the larger the effect. The comedone area was determined by histological analysis of tissue sections based on a method developed in our lab (see FIG. 2). Skin was fixed overnight in 4% paraformaldehyde at 4 deg. C. with gentle agitation and dehydrated the next day into 100% methanol. Samples were embedded in paraffin and a total of nine 10 micron sections 150 microns apart were prepared from each Rhino mouse. Five of the nine sections were digitally imaged (6× magnification) for comedone analysis using Metamorph Imaging Software (trace function). The perimeter of each comedone on the images taken from the 5 sections was then traced using a Wacom Intuos 3 Graphics Tablet interfaced with the software. The number of pixels comprising the area of each individual comedone was obtained and transferred to an Excel spreadsheet, and the mean number of pixels per comedone was obtained for each Rhino mouse. For comedones that were completely healed (area=0) a pixel value approaching 0 (<10) was entered into the spreadsheet. The individual comedone area average for each mouse was then used to calculate the treatment group mean. Results in the figures are expressed in terms of mean±standard error of the mean.
Preparation of topical formulations containing 2MBisP, CAGE-3, 24R-2MD2, VitIII (17-20E), NEL, VD-03, 2MPregna, 2MP, 20R-2MBisP, 2MTrisP, FF-44, FF-55, and HPBS. Separate concentrated ethanolic stocks of 2MBisP, CAGE-3, 24R-2MD2, VitIII (17-20E) and NEL were diluted to a final concentration containing 70 vol % propylene glycol and 30 vol % ethanol or 30 vol % propylene glycol and 70 vol % ethanol as the excipient carrier system. The mixture was thoroughly mixed. The topical dosing formulation delivered the desired dosing amount of drug on a per kilogram body weight basis. A dose ranging from 100-110 μL in volume was administered to the back of the mouse. An average weight of 24 or 30 g/mouse was assumed in dose volume calculations. […]

Rhino mouse [2] = assay: Comedolytic effect of oral administration to the Rhino mouse (comedone area); type: in vivo; conditions: oral daily 24 days
Source text: as §1, §2, §3, §4
Preparation of oral dosing solutions containing 2MBisP, CAGE-3, 24R-2MD2, VitIII (17-20E) and NEL. Separate concentrated stocks of 2MBisP, CAGE-3, 24R-2MD2, VitIII (17-20E) and NEL were obtained in ethanol. The concentration was determined spectrophotometrically using a molar extinction coefficient=42,000 and a λmax=252.7. […] The final dose was delivered in ≦50 μL of oil.
Preparation of oral atRA dosing formulation. A concentrated stock solution containing atRA was prepared in dichloromethane. The atRA concentrated stock solution was diluted into ethanol. The concentration of atRA in that diluted stock solution was determined spectrophotometrically, whereby the molar extinction coefficient=45,200 and λmax=350. The purity of atRA was determined to be >99% by HPLC. […]

[3] = Mus musculus, 504 h, daily topical ca. 3 weeks, 70 vol % ethanol/30 vol % propylene glycol, mean ± SEM, read-out: Comedone Area (% Vehicle)
[4] = daily topical 3 weeks, 70 vol % ethanol/30 vol % propylene glycol
[5] = topical 217 nmole/kgBW daily (total of 22 doses), 70 vol % ethanol/30 vol % propylene glycol
[6] = topical 217 nmole/kgBW intermittently Monday, Wednesday, Friday (total of 10 doses), 70 vol % ethanol/30 vol % propylene glycol

Compound: 2-(3′hydroxypropyl-1′,2′-idene)-19,23,24-trinor-(20S)-1α-hydroxyvitamin D3 [HPBS]
- Comedone Area (% Vehicle) (Rhino mouse [1]; daily topical ca. 3 weeks, 70 vol % ethanol/30 vol % propylene glycol, dose 217 to 122 nmol/kg (changed on day 3 or day 10), mean ± SEM): 74 ± 10 % Vehicle

Compound: C=C1/C(=C\C=C2/CCC[C@]3(C)[C@@H]([C@H](C)CCCC(C)(C)O)CC[C@@H]23)C[C@@H](O)C[C@@H]1O [1,25(OH)2D3, 1,25-DIHYDROXYVITAMIN D3, reference compound]
- response vs control in vivo at 0.006 µmol/kg (Rhino mouse [1]; Mus musculus, 504 h, daily topical ca. 3 weeks, 70 vol % ethanol/30 vol % propylene glycol, dose 6.0 nmol/kg, mean ± SEM, read-out: Comedone Area (% Vehicle)): 187 ± 30%

Compound: C=C1[C@H](O)CC(=C/C=C2\CCCC3(C)C2CCC3C(C)C)C[C@H]1O (stereo partly drawn) [2MP, 1α-hydroxy-2-methylene-19-nor-homopregnacalciferol]
- response vs control in vivo at 0.217 µmol/kg (Rhino mouse [1]; [3]): 92 ± 20%
- comedone area relative to vehicle-treated group (FIG. 8, 9, 10) (Rhino mouse [1]; [4]): smaller reduction in comedone area

Compound: C=C1[C@H](O)CC(=C/C=C2\CCCC3(C)C(CC)CCC23)C[C@H]1O (stereo partly drawn) [2MPregna, 2-methylene-19-nor-1α-hydroxy-pregnacalciferol]
- response vs control in vivo at 0.217 µmol/kg (Rhino mouse [1]; [3]): 63 ± 14%
- comedone area relative to vehicle-treated group (FIG. 8, 9, 10) (Rhino mouse [1]; [4]): significant reduction in comedone area

Compound: C=C1[C@H](O)CC(=C/C=C2\CCC[C@@]3(C)C2CCC3[C@@H](C)CCC)C[C@H]1O (stereo partly drawn) [2MTrisP, 2-methylene-(20S)-19-nor-1α-hydroxy-trishomopregnacalciferol]
- response vs control in vivo at 0.217 µmol/kg (Rhino mouse [1]; [3]): 66 ± 9%
- comedone area relative to vehicle-treated group (FIG. 8, 9, 10) (Rhino mouse [1]; [4]): significant reduction in comedone area

Compound: C=C1[C@H](O)CC(=C/C=C2\CCC[C@@]3(C)C2CCC3[C@H](C)CC)C[C@H]1O (stereo partly drawn) [20R-2MBisP, (20R)-1α-hydroxy-2-methylene-19-nor-bishomopregnacalciferol]
- response vs control in vivo at 0.217 µmol/kg (Rhino mouse [1]; [3]): 136 ± 17%
- response vs control in vivo at 0.694 µmol/kg (Rhino mouse [1]; Mus musculus, 504 h, daily topical ca. 3 weeks, 70 vol % ethanol/30 vol % propylene glycol, dose 694 nmol/kg, mean ± SEM, read-out: Comedone Area (% Vehicle)): 45 ± 6%
- response vs control in vivo at 2.187 µmol/kg (Rhino mouse [1]; Mus musculus, 504 h, daily topical ca. 3 weeks, 70 vol % ethanol/30 vol % propylene glycol, dose 2187 nmol/kg, mean ± SEM, read-out: Comedone Area (% Vehicle)): 17 ± 3%
- comedone area relative to vehicle-treated group (FIG. 8, 9, 10) (Rhino mouse [1]; [4]): insignificant effect
- comedone area relative to vehicle-treated group (FIG. 8) (Rhino mouse [1]; daily topical 3 weeks, 70 vol % ethanol/30 vol % propylene glycol, 694 nmole/kgBW/day): significant reduction

Compound: C=C1[C@H](O)CC(=C/C=C2\CCC[C@]3(C)C([C@H](C)/C=C/[C@@H](C)C(C)(C)O)CC[C@@H]23)C[C@H]1O (stereo partly drawn) [24R-2MD2, 2-methylene-19-nor-(24R)-1α,25-dihydroxyvitamin D2]
- response vs control in vivo at 0.0023 µmol/kg (Rhino mouse [1]; Mus musculus, 504 h, daily topical ca. 3 weeks, 70 vol % ethanol/30 vol % propylene glycol, dose 2.3 nmol/kg, mean ± SEM, read-out: Comedone Area (% Vehicle)): 176 ± 55%
- comedone area (FIG. 13) (Rhino mouse [2]; 2.3 nmole/kgBW/day): no significant reduction in comedone area

Compound: C=C1[C@H](O)CC(=C/C=C2\CCC[C@]3(C)[C@@H]([C@@H](C)CCCC4(O)CCCC4)CC[C@@H]23)C[C@H]1O [CAGE-3, 19-nor-26,27-dimethylene-20(S)-2-methylene-1α,25-dihydroxyvitamin D3]
- comedone area vs vehicle control (FIG. 3, FIG. 4) (Rhino mouse [1]; topical 3 weeks, 30 vol % ethanol/70 vol % propylene glycol, 0.9 ng/day (ca. 100 pmole/kgBW/day), reduced to 0.45 ng/day on day 10 and 0.22 ng/day on day 19): reduction in the comedone area; also recorded: reduced comedone area
- comedone area (FIG. 12) (Rhino mouse [2]; 68 pmole/kgBW/day): reduction in the comedone area

Compound: C=C1[C@H](O)CC(=C/C=C2\CCC[C@@]3(C)C2CCC3[C@H](C)CC(F)F)C[C@H]1O (stereo partly drawn) [FF-44, 2-methylene-(20R)-23,23-difluoro-1α-hydroxy-19-nor-bishomopregnacalciferol]
- response vs control in vivo at 0.069 µmol/kg (Rhino mouse [1]; [3]): 104 ± 20%
- response vs control in vivo at 0.217 µmol/kg (Rhino mouse [1]; [3]): 47 ± 12%
- comedone area (FIG. 7, FIG. 10) (Rhino mouse [1]; [4]): insignificant effect
- comedone area relative to vehicle-treated group (FIG. 8, 9, 10) (Rhino mouse [1]; [4]): significant reduction in comedone area
- comedone area relative to vehicle-treated group (FIG. 11) (Rhino mouse [1]; [5]): significant reduction in comedone area
- comedone area relative to vehicle-treated group (FIG. 11) (Rhino mouse [1]; [6]): significant reduction in comedone area

Compound: C=C1[C@H](O)CC(=C/C=C2\CCC[C@@]3(C)C2CCC3[C@@H](C)CC(F)F)C[C@H]1O (stereo partly drawn) [FF-55, 2-methylene-(20S)-23,23-difluoro-1α-hydroxy-19-nor-bishomopregnancalciferol]
- response vs control in vivo at 0.069 µmol/kg (Rhino mouse [1]; [3]): 108 ± 35%
- response vs control in vivo at 0.217 µmol/kg (Rhino mouse [1]; [3]): 53 ± 8%
- comedone area (FIG. 7, FIG. 10) (Rhino mouse [1]; [4]): insignificant effect
- comedone area relative to vehicle-treated group (FIG. 8, 9, 10) (Rhino mouse [1]; [4]): significant reduction in comedone area
- comedone area relative to vehicle-treated group (FIG. 11) (Rhino mouse [1]; [5]): significant reduction in comedone area
- comedone area relative to vehicle-treated group (FIG. 11) (Rhino mouse [1]; [6]): significant reduction in comedone area

Compound: C=C1[C@H](O)CC(=C/C=C2\CCC[C@]3(C)C([C@H](C)CCC[C@H](C)O)CC[C@@H]23)C[C@H]1O (stereo partly drawn) [NEL, 2-methylene-(20R,25S)-19,26-dinor-1α,25-dihydroxyvitamin D3]
- response vs control in vivo at 0.0075 µmol/kg (Rhino mouse [1]; Mus musculus, 504 h, daily topical ca. 3 weeks, 70 vol % ethanol/30 vol % propylene glycol, dose 7.5 nmol/kg, mean ± SEM, read-out: Comedone Area (% Vehicle)): 156 ± 34%
- response vs control in vivo at 0.025 µmol/kg (Rhino mouse [1]; Mus musculus, 504 h, daily topical ca. 3 weeks, 70 vol % ethanol/30 vol % propylene glycol, dose 25 nmol/kg, mean ± SEM, read-out: Comedone Area (% Vehicle)): 145 ± 24%
- comedone area (FIG. 14) (Rhino mouse [2]; 7.5 nmole/kgBW/day): no significant reduction in comedone area
- comedone area (FIG. 14) (Rhino mouse [2]; 25 nmole/kgBW/day): no significant reduction in comedone area

Compound: C=C1[C@H](O)CC(=C/C=C2\CCC[C@@H]3C([C@@H](C)CCCC(C)(C)O)CC[C@@H]23)C[C@H]1O (stereo partly drawn) [VD-03, 2-methylene-18,19-dinor-(20S)-1α,25-dihydroxyvitamin D3]
- response vs control in vivo at 0.00062 µmol/kg (Rhino mouse [1]; Mus musculus, 504 h, daily topical ca. 3 weeks, 70 vol % ethanol/30 vol % propylene glycol, dose 0.62 nmol/kg, mean ± SEM, read-out: Comedone Area (% Vehicle)): 90 ± 14%

Compound: C=C1[C@H](O)CC(=C/C=C2\CCC[C@]3(C)/C(=C(\C)CCCC(C)(C)O)CC[C@@H]23)C[C@H]1O [VitIII (17-20E), 2-methylene-1α,25-dihydroxy-(17E)-17(20)-dehydro-19-nor-vitamin D3]
- response vs control in vivo at 0.024 µmol/kg (Rhino mouse [1]; Mus musculus, 504 h, daily topical ca. 3 weeks, 70 vol % ethanol/30 vol % propylene glycol, dose 24 nmol/kg, mean ± SEM, read-out: Comedone Area (% Vehicle)): 116 ± 15%
- comedone area (FIG. 13) (Rhino mouse [2]; 24 nmole/kgBW/day): no significant reduction in comedone area
